Results published in patent publication US20250009725A1, “PHARMACEUTICAL COMPOSITION HAVING EXCELLENT DISSOLUTION PROPERTIES” (DAIICHI SANKYO COMPANY, LIMITED, priority 2021, published 2025).
Where a name gives a salt, the structure may show the parent alone.

Test: Solubility and dissolution of valemetostat tosylate under vigorous or slow agitation
Format: physicochemical
Description: The object of the present invention is to provide a pharmaceutical composition in which valemetostat or a pharmaceutically acceptable salt thereof, particularly valemetostat tosylate, has excellent dissolution properties. […] Since the effect of vigorous agitation cannot be expected in vivo, a pharmaceutical composition having sufficient dissolution properties in vivo is needed.

solubility (in words): sufficient solubility
Compound: Cc1cc(C)c(CNC(=O)c2cc(Cl)c3c(c2C)O[C@@](C)([C@H]2CC[C@H](N(C)C)CC2)O3)c(=O)[nH]1 [valemetostat tosylate, (2R)-7-chloro-2-[trans-4-(dimethylamino)cyclohexyl]-N-[(4,6-dimethyl-2-oxo-1,2-dihydropyridin-3-yl)methyl]-2,4-dimethyl-1,3-benzodioxol-5-carboxamide p-toluenesulfonate]
